From paper PMC4728507, “Bioactive Polycyclic Quinones from Marine Streptomyces sp. 182SMLY” (Marine Drugs, 2016) come the findings set out here.

Series [1] deals with methicillin-resistant Staphylococcus aureus ATCC 43300. Nature of the series: Antimicrobial assay, micro broth dilution, MRSA. The note with it: ATCC43300, ATCC 43300, micro broth dilution, read-out: MIC, growth of methicillin-resistant S. aureus. Format: cell-based. As for the experimental part: (§1) Compounds 1 and 2 were also determined for their activities against methicillin-resistant Staphylococcus aureus ATCC 43300 and Escherichia coli ATCC 25922.
(§2) The micro broth dilution method as described in the previous report was used to determine the antimicrobial activity of the isolated compounds against the methicillin-resistant Staphylococcus aureus ATCC 43300 and Escherichia coli ATCC 25922. Norfloxacin, a broad-spectrum antibiotic against both Gram-positive and Gram-negative bacteria, was used as the positive control.

Series [2] concerns Escherichia coli ATCC 25922. Nature of the series: Antimicrobial assay, micro broth dilution, E. coli. Format: cell-based. The note with it: ATCC 25922, micro broth dilution. As for the experimental part: as §1, §2
The test system of the next series is glioma SHG-44 cells. Nature of the series: SRB assay, proliferation of glioma SHG-44 cells. Format: cell-based. The note with it: Homo sapiens, 72 h, read-out: IC50 inhibiting the proliferation of cells, SHG-44. As for the experimental part:
(§3) The compounds 1 and 2 were assayed for their activities inhibiting the proliferation of glioma C6, U251, U87-MG, and SHG-44 cells using the sulforhodamine B (SRB) assay. The SRB assay is a method that measures total cellular protein content for evaluating the activity of tested compounds against the proliferation of tumor cells. Doxorubicin (DOX) was used as a positive control. Glioma cells were treated with tested compounds for 72 h at different concentrations. […] N-acetyl-N-demethylmayamycin (1) and streptoanthraquinone A (2) were also assayed for their activity against normal human astrocytes (HA). The initial assay was conducted on the concentrations from 0.35 to 7.0 μM for 1 and on those from 1.65 to 16.5 μM for 2. The cell viability of HA cells from each tested concentration of both compounds was 100%.
(§4) Human glioma U251 and rat glioma C6 cells were cultured in DMEM (Dulbecco’s Modified Eagle Medium, Gibco, Thermo Fisher Scientific Inc., Waltham, MA, USA) with 10% FBS (Fetal Bovine Serum, PAA Laboratories Inc., Dartmouth, MA, USA), human glioma SHG-44 in RPMI-1640 Medium (Roswell Park Memorial Institution 1640 Medium, Gibco, Thermo Fisher Scientific Inc., Waltham, MA, USA), human glioma U87-MG cells in MEM (Minimum Essential Medium, Gibco), and normal human astrocytes (HA) in AM (Astrocyte Medium, ScienCell, Cat. No. 1801). All cells were incubated at 37 °C in a humidified incubator with 5% CO2. Cells after the third generation were used for experiment.
(§5) The SRB assay was used to evaluate the activity of the isolated compounds in inhibiting the proliferation of glioma U87-MG, U251, SHG-44, and C6 cells. Doxorubicin (DOX) was used as the positive control. Briefly, glioma cells were plated in a 96-well plate and then treated with different concentrations of tested compound after cells adhesion for 24 h. […] After dried, dye was dissolved in a 10 mM Tris buffer and measured at 515 nm on a microplate reader (BioTech, Winooski, VT, USA).

Series [3] concerns glioma U251 cells. Description: SRB assay, proliferation of glioma U251 cells. Format: cell-based. The settings on record: Homo sapiens, U-251, 72 h, read-out: IC50 inhibiting the proliferation of cells, U251. As for the experimental part: as §3, §4, §5
The next series deals with glioma C6 cells. Nature of the series: SRB assay, proliferation of glioma C6 cells. Format: cell-based. The settings on record: Rattus norvegicus, 72 h, read-out: IC50 inhibiting the proliferation of cells, C6. The protocol:
as §3, §4, §5

The subject of the next series is glioma U87-MG cells. Nature of the series: SRB assay, proliferation of glioma U87-MG cells. Format: cell-based. The note with it: Homo sapiens, U-87 MG, 72 h, read-out: IC50 inhibiting the proliferation of cells, U87-MG. As for the experimental part:
as §3, §4, §5

Series [4] deals with glioma C6, U251, U87-MG, and SHG-44 cells. Description: SRB assay, four glioma cell lines (summary ranges). Format: cell-based. The settings on record: 72 h, read-out: IC50 range over four tested glioma cell lines. As for the experimental part: as §3
The SRB assay was used to evaluate the activity of the isolated compounds in inhibiting the proliferation of glioma U87-MG, U251, SHG-44, and C6 cells. Doxorubicin (DOX) was used as the positive control. Briefly, glioma cells were plated in a 96-well plate and then treated with different concentrations of tested compound after cells adhesion for 24 h. After 72 h of the treatment, cells were fixed with 50 μL of a 10% cold TCA solution for 1 h at 4 °C, washed with distilled water five times, and then dried at room temperature. The dried cells were stained with 50 μL of 0.4% SRB for ten minutes and rinsed with a 1% acetic acid solution five times. After dried, dye was dissolved in a 10 mM Tris buffer and measured at 515 nm on a microplate reader (BioTech, Winooski, VT, USA).

Series [5] deals with glioma U251 cells. Nature of the series: Apoptosis in glioma U251 cells, flow cytometry with Annexin V-FITC/PI double staining. Format: cell-based, human. The settings on record: 36 h, control 3.58%. As for the experimental part:
N-acetyl-N-demethylmayamycin (1) and streptoanthraquinone A (2) were further tested for their ability to induce apoptosis in glioma U251 cells by flow cytometry using Annexin V-FITC/PI double staining.
Figure 6 N-acetyl-N-demethylmayamycin (1) and streptoanthraquinone A (2) induced apoptosis in the glioma U251 cells quantified by cytometric analysis. U251 cells were treated with 1 (0.7 μM) or 2 (3.3 μM) for 36 h and then stained with Annexin-V FITC and PI double staining (B1: necrotic cells; B2: late apoptotic cells; B3: normal glioma cells; B4: early apoptotic cells). TEXT PRINTED IN THE PICTURE: 1: U251: B1: 2.87% (0.7 μM); U251: B2: 31.39% (0.7 μM); U251: B3: 54.79% (0.7 μM); U251: B4: 10.95% (0.7 μM) | 2: U251: B1: 3.00% (3.3 μM); U251: B2: 29.85% (3.3 μM); U251: B3: 56.75% (3.3 μM); U251: B4: 10.40% (3.3 μM) DOUBTS OF THE COPYIST ABOUT THIS PICTURE: 1, B3: 54.79% is partly covered by plot points, digits not certain / 2, B3: 56.75% is partly covered by plot points, digits not certain / The CON (untreated control) plot prints B1 0.28%, B2 2.17%, B3 96.14% (partly covered by plot points, 96.14 or 96.44), B4 1.41%; left out of lines because it is not a substance

A short description of series [6]: Activity against normal human astrocytes (HA). The note with it: human, normal human astrocytes (HA), initial assay, read-out: Cell viability of HA cells. Format: cell-based. As for the experimental part: as §3, §4
Series [7] has as its system normal human astrocytes (HA). Description: Activity against normal human astrocytes (HA). The note with it: Homo sapiens, Astrocyte; HA cells, second assay in higher concentrations. Format: cell-based. As for the experimental part: as §3, §4

Values after ≈ are worked out from the molar mass of the structure shown. Where two headings read alike, the source gives them in different places.

As to `CCn1cc(C(=O)O)c(=O)c2cc(F)c(N3CCNCC3)cc21` [norfloxacin, reference compound], the MIC in series [1] is 62.6 µM (≈ 20 µg/mL); in [2] (Escherichia coli, ATCC25922, read-out: MIC, growth of E. coli) it was 31.3 µM (≈ 10 µg/mL).
Regarding `CC(=O)OC1c2c3c(c(O)c4c2C(Cc2c(O)cc(C)cc2-4)OC1C)C(=O)c1cccc(O)c1C3=O` (centres unmarked) [Compound 2, streptoanthraquinone A], the IC50 in the series on glioma SHG-44 cells is 6.5 ± 1.1 µM; with glioma U251 cells [3] it was 3.3 ± 0.3 µM; in the series with glioma C6 cells, 7.3 ± 1.4 µM; with glioma U87-MG cells, 4.6 ± 0.3 µM; in series [4], 3.3 to 7.3 µM; in series [7], above 100 µM. In series [2], the “MIC, growth of E. coli” value is given as “no activity”. Besides, in the series with glioma U251 cells [5] (U251, 3.3 μM), the “Increase of total apoptotic cells (early and late) compared to the control” value turned out to be 36.67%. The viability in [6] (each tested concentration from 1.65 to 16.5 μM) was 100%.
For `CC(=O)NC1CC(c2c(O)c3c(c4c(O)cc(C)cc24)C(=O)c2cccc(O)c2C3=O)OC(C)C1O` (centres unmarked) [Compound 1, N-acetyl-N-demethylmayamycin], the IC50 in the series on glioma SHG-44 cells is 3.9 ± 0.4 µM; in the series on glioma U251 cells [3] it was 0.7 ± 0.2 µM; in the series with glioma C6 cells, 0.5 ± 0.1 µM; with glioma U87-MG cells, 1.4 ± 0.1 µM; in series [4] it was 0.5 to 3.9 µM; in [7], 25 ± 1.3 µM. Also, in series [1], the MIC was 20 µM (≈ 9.83 µg/mL). The “MIC, growth of E. coli” value in [2] is on record as “no activity”. Also, the “Increase of total apoptotic cells (early and late) compared to the control” value in the series with glioma U251 cells [5] (U251, 0.7 μM) came out at 38.76%. For the same compound, the viability in series [6] (each tested concentration from 0.35 to 7.0 μM) came out at 100%.
Turning to `COc1cccc2c1C(=O)c1c(O)c3c(c(O)c1C2=O)C[C@@](O)(C(=O)CO)C[C@@H]3O[C@H]1C[C@H](N)[C@H](O)[C@H](C)O1` [Doxorubicin (DOX), Doxorubicin, reference compound], the IC50 with glioma SHG-44 cells was 9 ± 0.8 µM; in the series with glioma U251 cells [3], 6.7 ± 1.1 µM; in the series on glioma C6 cells, 1 ± 0.1 µM; in the series on glioma U87-MG cells, 0.9 ± 0.1 µM; in series [4], 0.9 to 9 µM.
